Measured values from US20250331522A1, “CHLORINE DIOXIDE […] TO PREVENT BLACK ROT DISEASE AND PROMOTE WOUND HEALING IN SWEETPOTATO” (Zhejiang A&F University, priority 2024, published 2025).

Tests used:
[1] = system: sweetpotato wounds inoculated with C. fimbriata; test: Promotion of wound-healing ability of sweetpotatoes (disease index after re-inoculation with C. fimbriata); format: in vivo, Xinxiang sweetpotatoes; Ceratocystis fimbriata; conditions: fumigation 30 h; spores applied on day 0, 1, 3, 5, 7 of healing; incidence counted after 7 days
Procedure: The effects of the combined reagents prepared by the method described in Embodiments 1-3 on promoting the wound-healing ability of sweetpotatoes are investigated, the method is as follows: […]
After the treatment, the fresh-keeping box is first ventilated, and the sweetpotatoes are transferred into a normal storage incubator (25° C., humidity 85%) for storage. During the storage of sweetpotatoes, 20 μL of fungus solution with a spore concentration of 10^6 spore/mL prepared in Embodiment 4 is evenly applied to the surface of the wounds on the 0th, 1st, 3rd, 5th and 7th day, respectively, the incidence of the disease after 7 days is counted and the disease index is calculated. […] The sweetpotatoes with perforation damage but without ClO2 treatment are used as the control group, and the disease index is calculated by the following formula: […]

C. fimbriata = test: Inhibition of C. fimbriata in vitro (colony diameter on PDA plate after ClO2 fumigation); format: cell-based, Ceratocystis fimbriata; conditions: ClO2 fumigation 4 h, culture 15 d
Procedure: C. fimbriata preserved at −80° C. is thawed and resuscitated at 4° C., 200 μL C. fimbriata is taken into 15 mL PDA medium plates in the ultra-clean table and cultured at 28° C. for 7 d. After 7 d, 5 colonies of C. fimbriata are picked on the medium and inoculated into the expanding culture medium with an inoculation needle for further culture for 7 d. After 7 days, some of the expanding culture plates are used to prepare fungus pieces, and some plates are used to prepare spore suspension. […] The spore concentration is calculated by the blood cell counting plate, and adjusted to 10^6 spore/mL. […]
The expanding culture plate of C. fimbriata cultured in Embodiment 4 is selected, and the fungus piece is prepared by using a 10 mm sterile puncher, the fungus piece is reversely connected to the center of the PDA medium, and the PDA plate is placed in a 10 L fresh-keeping box, and the combined reagents prepared by the method described in Embodiments 1-3 are added, the plate is fumigated with ClO2 for 4 h, the culture plate is moved into a constant temperature incubator at 27° C. for 15 d after the treatment. The colony diameter of the culture plate is measured by the cross method every 3 days, the measurement is repeated three times, and the plate without ClO2 fumigation is used as the blank control.

[2] = system: C. fimbriata in sweetpotato; test: Inhibitory effect on the growth of C. fimbriata in inoculated sweetpotato (lesion diameter and depth); format: in vivo, Ceratocystis fimbriata; Xinxiang sweetpotatoes; conditions: fumigation 30 h, storage 15 days at 25° C., humidity 85%
Procedure: C. fimbriata preserved at −80° C. is thawed and resuscitated at 4° C., 200 μL C. fimbriata is taken into 15 mL PDA medium plates in the ultra-clean table and cultured at 28° C. for 7 d. After 7 d, 5 colonies of C. fimbriata are picked on the medium and inoculated into the expanding culture medium with an inoculation needle for further culture for 7 d. After 7 days, some of the expanding culture plates are used to prepare fungus pieces, and some plates are used to prepare spore suspension. Sterile water is added into the culture plate, the mycelium is scraped and filtered through four layers of sterile gauze to remove the mycelium and medium impurities, and the spore suspension of C. fimbriata is obtained. The spore concentration is calculated by the blood cell counting plate, and adjusted to 10^6 spore/mL.
The inhibitory effect of the combined reagents prepared by the method described in Embodiments 1-3 on the growth of C. fimbriata in sweetpotato is investigated, the method is as follows: […]

[O][Cl+][O-] [ClO2, chlorine dioxide]
resistance to infection / wound healing of sweetpotatoes (disease index, in words) [1]: after 5 days of healing can completely resist the infection of pathogenic fungus
growth of C. fimbriata (in words) (C. fimbriata): directly inhibit the growth of C. fimbriata
diameters and depths of the lesion of inoculated sweetpotatoes (in words) [2]: decreases significantly with the increase of treatment concentration
